The test system of assay [1] is P388/ADR. Briefly: Reversal of ABCB1 mediated doxorubicin-resistance in mouse P388/ADR cells assessed as cell growth inhibition incubated for 48 hrs by MTT assay. The assay is classed as functional, cell-based.
Assay [2] deals with P388/ADR. Description: Potency index, ratio of verapamil IC50 to compound IC50 for reversal of ABCB1 mediated doxorubicin-resistance in mouse P388/ADR cells assessed as cell growth inhibition incubated for 48 hrs by MTT assay. In kind it is functional.

For the compound `COc1ccc(CCN(C)CCCOc2ccc(S(=O)(=O)c3c(C(C)C)cn4ccccc34)cc2)cc1OC` [FANTOFARONE], the IC50 in assay [1] was determined as 30 µM. Further, in assay [2], the “Ratio IC50” value turned out to be 4.5.

The record behind these values is ChEMBL document CHEMBL5346860, “Cancer multidrug-resistance reversal by ABCB1 inhibition: A recent update” (Eur J Med Chem, 2022).
